In ChEMBL document CHEMBL1201862, “PubChem BioAssay data set” (2004):
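Assay format: 96-well plates, 48-hour exposure. GI50 = concentration required for 50% inhibition of growth.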 The source made the active and inactive calls. Cut-off read from the data, not from the text of the source: active = GI50 up to about 1.1 µM and inactive = higher.

Columns and labels:
Assay in all cases: inhibition of tumour cell growth, NCI panel, 48 h
SNB-75 = system: SNB-75
EKVX = system: EKVX
SF-268 = system: SF-268
Hs-578T = system: Hs-578T
T47D = system: T47D
UACC-62 = system: UACC-62
SK-MEL-5 = system: SK-MEL-5
NCI-H460 = system: NCI-H460
DU-145 = system: DU-145
IGROV-1 = system: IGROV-1
HCT-116 = system: HCT-116
SF-295 = system: SF-295
UACC-257 = system: UACC-257
HCC 2998 = system: HCC 2998
CAKI-1 = system: CAKI-1
COLO 205 = system: COLO 205
K562 = system: K562
LOX IMVI = system: LOX IMVI
SR = system: SR
HOP-62 = system: HOP-62
SW-620 = system: SW-620
SN12C = system: SN12C
U-251 = system: U-251
Malme-3M = system: Malme-3M
MOLT-4 = system: MOLT-4
786-0 = system: 786-0
TK-10 = system: TK-10
NCI-H522 = system: NCI-H522
A549 = system: A549
MCF7 = system: MCF7
KM12 = system: KM12
ACHN = system: ACHN
CCRF-CEM = system: CCRF-CEM
MDA-N = system: MDA-N
RXF 393 = system: RXF 393
HT-29 = system: HT-29
NCI-H23 = system: NCI-H23
UO-31 = system: UO-31
M14 = system: M14
SK-MEL-28 = system: SK-MEL-28
SF-539 = system: SF-539
MDA-MB-435 = system: MDA-MB-435
OVCAR-8 = system: OVCAR-8
OVCAR-3 = system: OVCAR-3
HCT-15 = system: HCT-15
MDA-MB-231 = system: MDA-MB-231
RPMI-8226 = system: RPMI-8226
NCI-H226 = system: NCI-H226
SNB-19 = system: SNB-19
HL-60 = system: HL-60
NCI/ADR-RES = system: NCI/ADR-RES
OVCAR-5 = system: OVCAR-5
HOP-92 = system: HOP-92
SK-MEL-2 = system: SK-MEL-2
SK-OV-3 = system: SK-OV-3
A498 = system: A498
PC-3 = system: PC-3
OVCAR-4 = system: OVCAR-4

Q: With `COc1cc(CNc2nc3cc(C(F)(F)F)ccc3nc2C)cc(OC)c1OC` as the compound, how does the GI50 (SNB-75) read?
A: 19.4 µM (inactive)

Q: And the GI50 (EKVX)?
A: 17 µM (inactive)

Q: What about the GI50 (SF-268) of the same compound?
A: 25.6 µM (inactive)

Q: What about the GI50 (Hs-578T) of the same compound?
A: 13.5 µM (inactive)

Q: What about the GI50 (T47D) of the same compound?
A: 17.9 µM (inactive)

Q: What about the GI50 (UACC-62) of the same compound?
A: 7.96 µM (inactive)

Q: And the GI50 (SK-MEL-5)?
A: 19.7 µM (inactive)

Q: What about the GI50 (NCI-H460) of the same compound?
A: 16.3 µM (inactive)

Q: And the GI50 (DU-145)?
A: 26.4 µM (inactive)

Q: And the GI50 (IGROV-1)?
A: 14.7 µM (inactive)

Q: And the GI50 (HCT-116)?
A: 19.3 µM (inactive)

Q: And the GI50 (SF-295)?
A: 19.1 µM (inactive)

Q: And the GI50 (UACC-257)?
A: 16.6 µM (inactive)

Q: What about the GI50 (HCC 2998) of the same compound?
A: 18.3 µM (inactive)

Q: What about the GI50 (CAKI-1) of the same compound?
A: 24.7 µM (inactive)

Q: And the GI50 (COLO 205)?
A: 12.8 µM (inactive)

Q: What about the GI50 (K562) of the same compound?
A: 23 µM (inactive)

Q: What about the GI50 (LOX IMVI) of the same compound?
A: 13.9 µM (inactive)

Q: And the GI50 (SR)?
A: 14.5 µM (inactive)

Q: And the GI50 (HOP-62)?
A: 24.3 µM (inactive)

Q: And the GI50 (SW-620)?
A: 17.1 µM (inactive)

Q: And the GI50 (SN12C)?
A: 14.7 µM (inactive)

Q: And the GI50 (U-251)?
A: 15.3 µM (inactive)

Q: What about the GI50 (Malme-3M) of the same compound?
A: 17.5 µM (inactive)

Q: What about the GI50 (MOLT-4) of the same compound?
A: 10.9 µM (inactive)

Q: And the GI50 (786-0)?
A: > 10 µM (inactive)

Q: And the GI50 (TK-10)?
A: 15.7 µM (inactive)

Q: What about the GI50 (NCI-H522) of the same compound?
A: 18.3 µM (inactive)

Q: And the GI50 (A549)?
A: 28.4 µM (inactive)

Q: What about the GI50 (MCF7) of the same compound?
A: > 10 µM (inactive)

Q: What about the GI50 (KM12) of the same compound?
A: 15.9 µM (inactive)

Q: What about the GI50 (ACHN) of the same compound?
A: 13.6 µM (inactive)

Q: What about the GI50 (CCRF-CEM) of the same compound?
A: 20.3 µM (inactive)

Q: What about the GI50 (MDA-N) of the same compound?
A: 15.8 µM (inactive)

Q: And the GI50 (RXF 393)?
A: 16.6 µM (inactive)

Q: What about the GI50 (HT-29) of the same compound?
A: 17.2 µM (inactive)

Q: What about the GI50 (NCI-H23) of the same compound?
A: 18.9 µM (inactive)

Q: What about the GI50 (UO-31) of the same compound?
A: 17.7 µM (inactive)

Q: What about the GI50 (M14) of the same compound?
A: 12.4 µM (inactive)

Q: And the GI50 (SK-MEL-28)?
A: 20.4 µM (inactive)

Q: And the GI50 (SF-539)?
A: 21.6 µM (inactive)

Q: And the GI50 (MDA-MB-435)?
A: 19.5 µM (inactive)

Q: And the GI50 (OVCAR-8)?
A: 23.7 µM (inactive)

Q: What about the GI50 (OVCAR-3) of the same compound?
A: 25.2 µM (inactive)

Q: What about the GI50 (HCT-15) of the same compound?
A: 13.1 µM

Q: What about the GI50 (MDA-MB-231) of the same compound?
A: 14.5 µM (inactive)

Q: What about the GI50 (RPMI-8226) of the same compound?
A: 11.7 µM (inactive)

Q: And the GI50 (NCI-H226)?
A: > 10 µM (inactive)

Q: And the GI50 (SNB-19)?
A: 35.1 µM (inactive)

Q: What about the GI50 (HL-60) of the same compound?
A: 16.5 µM (inactive)

Q: And the GI50 (NCI/ADR-RES)?
A: > 10 µM (inactive)

Q: For `O=C1C(Cl)=C(N2CCN(CCOCCO)CC2)C(=O)c2c(O)ccc(O)c21`, which GI50 (SNB-75) is on record?
A: 1.77 µM (inactive)

Q: And the GI50 (OVCAR-5)?
A: 2.38 µM (inactive)

Q: What about the GI50 (Hs-578T) of the same compound?
A: 2.1 µM (inactive)

Q: And the GI50 (T47D)?
A: 0.458 µM (active)

Q: What about the GI50 (NCI-H460) of the same compound?
A: 3.08 µM (inactive)

Q: And the GI50 (DU-145)?
A: 2.65 µM (inactive)

Q: And the GI50 (HCC 2998)?
A: 3.28 µM (inactive)

Q: What about the GI50 (K562) of the same compound?
A: 0.104 µM (active)

Q: And the GI50 (MOLT-4)?
A: 0.0869 µM (active)

Q: And the GI50 (HOP-92)?
A: 0.422 µM (active)

Q: And the GI50 (A549)?
A: 2.77 µM (inactive)

Q: And the GI50 (HT-29)?
A: 0.64 µM (active)

Q: And the GI50 (SF-539)?
A: 1.66 µM (inactive)

Q: And the GI50 (HCT-15)?
A: 0.453 µM

Q: What about the GI50 (NCI-H226) of the same compound?
A: 1.75 µM (inactive)

Q: And the GI50 (HL-60)?
A: 0.0272 µM (active)

Q: What does the source list for `CC1CN=C(N(C(=O)Nc2ccccc2)C2CCCCC2)S1` (stereo not drawn)?
A: GI50 (SK-MEL-2): 15.2 µM (inactive); GI50 (SNB-75): 12.6 µM (inactive); GI50 (OVCAR-5): 14.7 µM (inactive); GI50 (EKVX): 15.7 µM (inactive); GI50 (SF-268): 17.6 µM (inactive); GI50 (Hs-578T): 20.7 µM (inactive); GI50 (T47D): 17.7 µM (inactive); GI50 (SK-MEL-5): 15.1 µM (inactive); GI50 (SK-OV-3): 31.3 µM (inactive); GI50 (NCI-H460): 16.6 µM (inactive); GI50 (DU-145): 25.5 µM (inactive); GI50 (IGROV-1): 17.8 µM (inactive); GI50 (HCT-116): 16.7 µM (inactive); GI50 (SF-295): 16.7 µM (inactive); GI50 (UACC-257): 16 µM (inactive); GI50 (HCC 2998): 18.3 µM (inactive); GI50 (CAKI-1): 12.4 µM (inactive); GI50 (COLO 205): 19 µM (inactive); GI50 (K562): 22.5 µM (inactive); GI50 (LOX IMVI): 13.5 µM (inactive); GI50 (SR): 15.9 µM (inactive); GI50 (HOP-62): 41.2 µM (inactive); GI50 (SW-620): 14.1 µM (inactive); GI50 (SN12C): 16.6 µM (inactive); GI50 (A498): 14.4 µM (inactive); GI50 (U-251): 16.9 µM (inactive); GI50 (Malme-3M): 16.3 µM (inactive); GI50 (MOLT-4): 16.7 µM (inactive); GI50 (786-0): 17.3 µM (inactive); GI50 (TK-10): 16.7 µM (inactive); GI50 (A549): 16.7 µM (inactive); GI50 (MCF7): 16.6 µM (inactive); GI50 (KM12): 16.1 µM (inactive); GI50 (ACHN): 13.5 µM (inactive); GI50 (CCRF-CEM): 20.7 µM (inactive); GI50 (MDA-N): 15.6 µM (inactive); GI50 (HT-29): 17 µM (inactive); GI50 (PC-3): 15.5 µM (inactive); GI50 (NCI-H23): 16.4 µM (inactive); GI50 (UO-31): 17.3 µM (inactive); GI50 (SK-MEL-28): 12.4 µM (inactive); GI50 (SF-539): 22.4 µM (inactive); GI50 (OVCAR-8): 25.9 µM (inactive); GI50 (OVCAR-3): 17.7 µM (inactive); GI50 (HCT-15): 14.4 µM; GI50 (OVCAR-4): 14.5 µM (inactive); GI50 (MDA-MB-231): 15.4 µM (inactive); GI50 (RPMI-8226): 18.8 µM (inactive); GI50 (SNB-19): 29.2 µM (inactive); GI50 (HL-60): 14.8 µM (inactive); GI50 (NCI/ADR-RES): 14.5 µM (inactive)
